“And” between values parts separate entries of the source, which are not always exact repeats. Equal entries are not always repeated. Marks after values point to notes of the source that are not given here.
Legend:
SCD1 [1] = biological target: T1, SCD1 (Homo sapiens (Human), UniProt O00767); experiment: SCD1 14C-palmitate assay in A431 cells; assay type: cell-based; details: read-out: A431 cells 14C-PA IC50
Method: Human epithelial carcinoma A431 cells were seeded at 400,000 cells per well in 48-well tissue culture plate and treated with 2 cycles of fasting in low glucose medium (DMEM, Cellgro #10-014-CV, 1 g/L glucose, 2% Charcoal Filtered FBS) for 24 hours; and re-feeding with high glucose medium for 24 hours (DMEM, Cellgro #10-013-CM, 4.5 g/L glucose, 10% Charcoal Filtered FBS and 0.05 mg/mL Lilly Humulin R, Cat.#, HI-210). Prior to running the assay, the cells were washed twice with high glucose medium (400 μL), followed by addition of 250 μL assay buffer (DMEM, 4.5 g/L glucose, 0.05 mg/mL Human Insulin, 0.1% Fatty Acid Free BSA) to each well. Then, 100 μL of assay buffer containing 20 μM Palmitic Acid, 0.05 μCi ^14C Palmitic Acid (Perkin Elmer, NEC075H) and test compound (at selected concentration) was added to each well. The cells were then Incubated at 37° C. and 5% CO2 tissue culture incubator for 4 hours, followed by extensive washes with pre-chilled PBS. The cell plates were then frozen at −20° C. overnight. After thawing out the plates, 100 μL of 1N KOH was added to each well and the plates were incubated at 37° C. for 30 mins. Cell lysates were transferred to 1 mL Eppendorf tubes and incubated at 95° C. for 1 hour, followed by addition of 10 μL formic acid and 220 μL acetonitrile. The tubes were then centrifuged at 12,000 rpm and the supernatant dried under N2 for 2-3 hours. Dried extract was re-suspended in 60 μL hexane and loaded onto TLC plates (pre-coated with 10% AgNO3 in acetonitrile). The TLC plates were placed into glass running chamber containing 200 mL running solution (100 mL running solution: 92.5 mL chloroform, 6 mL methanol, 750 μL acetic acid, 750 μL dH2O). After running, the TLC plates were air dried and scanned on Bioscan AR-2000 for quantification of ^14C-palmitioleate and ^14C-palmitate peaks. Area under the curve of the peaks were used to calculate product/substrate ratio, an index of SCD1 activity.

SCD1 [2] = biological target: SCD1 (Rattus norvegicus (Rat), UniProt P07308); experiment: SCD1 enzymatic assay in rat liver microsomes (RLM); assay type: biochemical; details: for % Inh. @ 1 μM / inhibition at 1 µM: 1 μM test compound
Method: Step 1: Preparation of Rat Liver Microsome (RLM)
Sprague Dawley rats from Charles River (200-225 g) underwent 2-cycle of fast-re-feeding (24-hour fast followed by 24-hour feeding with fat-free high carbohydrate diet, Research Diet, D00042802). The livers were removed and homogenized 1:4 (w/v) with pre-chilled, homogenizing buffer (10 mM Tris-HCl, 0.25 M sucrose, 1 mM EDTA, pH 7.4, supplemented with protease inhibitor cocktail). The homogenate was spun at 12,000×g for 15 min at 4° C. The supernatant was then re-centrifuged at 100,000×g for 60 min at 4° C. The pellet was re-suspended in 2 ml pre-chilled […] potassium phosphate buffer, pH 7.2, 10 mM EDTA at a concentration of 20 mg/ml. The resulting rat liver microsome (RLM) preparation was stored at […].
Step 2: SCD1 Enzymatic Assay in RLM:
The SCD1 enzymatic assay was done in a volume of 50 μL using 10 μg of RLM (prepared as described above) in a 96-well polypropylene plate (enzyme reaction buffer contains 0.1 M K-Phosphate Buffer, 10 mM ATP, 6 mM MgCl2, 1 mM CoA, 1 mM β-NADH, 1.6 mM L-glutathione, 20 μM Stearoyl-CoA). Stearoyl-[9,10-^3H]—CoA (ARC-0390, 1 mCi/mL, 60 Ci/mmol,) was added at a final concentration of 2 μCi/mL. Test compound was then added to the reaction mixture at the selected concentration. After incubation at room temperature for 2 hours, 5 μL 1 N HCl was added to stop the reaction, followed by addition of 25 μL of 10% charcoal. The reaction mixture was then transferred to 96-well Multiscreen plate (Millipore, Cat# MSFCN6B50). [^3H2O] was collected into Opti-plate (PE, Cat #6005290) by centrifuge, at 1,000 rpm for 2 minutes. 150 μL Microscint 40 (PE, cat #6013641) was then added to each well and counted on Topcount for [^3H] counts per minute (cpm). The measured cpm values were fitted with Sigmoidal dose-response curve fit with Graphpad Prism.

[3] = 10-day diet-induced obese C57bl/6 mice study; assay type: in vivo; details: DIO C57BL/6J mice, oral, 10 days
Method: Male DIO C57BL/6J mice from Taconic were maintained on high fat diet D12492 containing 60% kCal of mostly saturated fats (Research Diets Inc.) for 4 week from 6-week old. Test compounds were prepared in 0.5% hydroxypropyl methyl cellulose for oral dosing at 10 mg/kg or 30 mg/kg, either q.d. or b.i.d., as noted in the results table below. After 10-days of treatment, body weight change are recorded. Plasma liver enzyme levels (ALT and AST) were also determined.
Compound #6 of the present invention was tested according to the procedure as described above, with results as listed in Table 4, below. In the results presented below, * indicates a calculated p value<0.05 vs. vehicle-treated group.

SCD1 [4] = biological target: T1, SCD1; experiment: SCD1 13C-palmitic acid assay in A431 cells; assay type: cell-based; details: read-out: A431 cells 13C-PA IC50
Method: Human epithelial carcinoma A431 cells were seeded at 100,000 cells/well in complete growth medium (DMEM, Cellgro #10-013-CM, 4.5 g/L glucose, 10% FBS) in the presence of 0.05 mg/mL human insulin (Hannas Pharmaceutical Supply Co Inc, Humanlin 100 U/ml, 4 mg/ml) in 96-well tissue culture plate. […] The cells were then returned to the tissue culture incubator (37° C. and 5% CO2) for 4 hrs. At the end of incubation, the cells were washed three times with 200 μL/well Hanks buffer (HBSS) and then stored at −20° C. until extraction.
For fatty acid extraction, after thawing out the plates, 40 μL of 1N KOH (containing 5 μM of internal standard 7,7,8,8-D4 palmitate) was added to each well and cell plates were incubated at 37° C. for 30 minutes. […] Acetonitrile (100 μL) was then added to extract fatty acids, followed by centrifugation at 3000 rpm for 10 minutes. 75 μL of extract was then transferred to a new glass vial in a 96-well cluster plate. 5 μL was injected for LC/MS analysis for detection of ^13C-palmitic acid and ^13C-palmitoleic acid. Formation of product ^13C-palmitoleic acid was determined as an index of SCD1 activity.
LC/MS analysis was performed as following. An Agilent 1100 Liquid Chromatographic System (Palo Alto, Calif.) consisting of a binary pump, a degasser and an autosampler was used. Separation of free fatty acids was performed on a Zorbax SB—C8 column (2.1×50 mm, particle size=3.5 μm). An isocratic elution was carried out with 10 mM triethylamine acetate in water:acetonitrile (3:7) at a flow rate of 0.3 mL/min. The column temperature was set at 30° C. and the sample injection volume was 5 μL. The LC run cycle was 4 min, A Micromass triple-quadrupole Quattro Micro mass […] (Waters, Beverly, Mass.) was interfaced with the LC system through a Z-spray electrospray ion source and was operated in the negative ion mode. Nitrogen was used as nebulizing gas, desolvation gas and cone curtain gas and argon was chosen as collision gas. The triple quadrupole MS source parameters were set as follows: capillary voltage, 3200V; cone voltage, 25V; extractor 2V, source temperature, 120° C.; desolvation temperature, 300° C.; cone gas flow, 50 L/h; and desolvation gas flow, 700 L/h. […] MassLynx software version 4.0 was used for system control and data processing. The signal of U—^13C-palmitoleic acid was normalized to an internal standard.

T1 sequence (O00767 whole entry): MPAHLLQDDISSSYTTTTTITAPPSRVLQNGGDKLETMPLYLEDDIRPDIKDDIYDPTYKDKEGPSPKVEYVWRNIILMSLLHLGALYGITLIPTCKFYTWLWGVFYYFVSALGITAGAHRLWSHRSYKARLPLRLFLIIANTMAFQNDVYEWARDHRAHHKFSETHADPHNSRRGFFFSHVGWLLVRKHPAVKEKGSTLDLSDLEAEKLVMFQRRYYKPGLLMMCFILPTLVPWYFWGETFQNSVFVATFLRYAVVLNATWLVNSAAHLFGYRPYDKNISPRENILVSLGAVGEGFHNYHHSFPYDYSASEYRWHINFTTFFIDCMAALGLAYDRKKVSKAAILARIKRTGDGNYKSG
SCD1 (Rattus norvegicus (Rat), UniProt P07308), sequence (P07308 whole entry): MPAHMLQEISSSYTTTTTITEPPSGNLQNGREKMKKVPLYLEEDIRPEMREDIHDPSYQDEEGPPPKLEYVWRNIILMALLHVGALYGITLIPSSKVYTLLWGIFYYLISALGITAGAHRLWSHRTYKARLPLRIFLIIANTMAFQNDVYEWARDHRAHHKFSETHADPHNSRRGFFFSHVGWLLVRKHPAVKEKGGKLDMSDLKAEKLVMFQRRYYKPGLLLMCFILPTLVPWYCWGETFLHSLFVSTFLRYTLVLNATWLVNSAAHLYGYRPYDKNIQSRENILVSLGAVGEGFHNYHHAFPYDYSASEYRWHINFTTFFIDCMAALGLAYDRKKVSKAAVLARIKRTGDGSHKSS

Row | SMILES | IC50 (SCD1 [1]) | IC50 (SCD1 [2]) | inhibition at 1 µM (SCD1 [2]) [%] | IC50 (SCD1 [4]) [nM] | also measured
1 | Cc1csc(NC(=O)N2CCC(N3CCc4ccccc43)CC2)n1 [Compound 3, 4-(indolin-1-yl)-N-(4-methylthiazol-2-yl)piperidine-1-carboxamide] | 804 nM and 379 nM | 161 nM and 145 nM | 70 | – | % Inh. @ 1 μM (SCD1 [2]): 76%
2 | CNC(=O)c1cccc(NC(=O)N2CCC(N3CCc4ccccc43)CC2)c1 [Compound 12, 4-(indolin-1-yl)-N-(3-(methylcarbamoyl)phenyl)piperidine-1-carboxamide] | 755 nM | 151 nM | 82 | – | –
3 | Cc1csc(NC(=O)N2CCC(N3CCCc4ccccc43)CC2)n1 [Compound 13, 4-(3,4-dihydroquinolin-1(2H)-yl)-N-(4-methylthiazol-2-yl)piperidine-1-carboxamide] | 848 nM | 491 nM | 81 | – | –
4 | Cc1csc(NC(=O)N2CCC(c3noc4ccc(F)cc34)CC2)n1 [Compound 6, 4-(5-fluorobenzo[d]isoxazol-3-yl)-N-(4-methylthiazol-2-yl)-piperidine-1-carboxamide] | 290 nM | 140 nM | 88 | 54 | Body weight change (g) ([3]; 10 mg/kg, q.d): 0.00 ± 0.36* g; Plasma ALT (U/L) ([3]; 10 mg/kg, q.d): 57 ± 7 U/L; Plasma AST (U/L) ([3]; 10 mg/kg, q.d): 89 ± 7 U/L; Body weight change (g) ([3]; 30 mg/kg, bid): −0.69 ± 0.38 * g; Plasma ALT (U/L) ([3]; 30 mg/kg, bid): 41 ± 3 U/L; Plasma AST (U/L) ([3]; 30 mg/kg, bid): 102 ± 17 U/L; Body weight change (g) ([3]; 30 mg/kg, q.d): 0.01 ± 0.24* g; Plasma ALT (U/L) ([3]; 30 mg/kg, q.d): 68 ± 12 U/L; Plasma AST (U/L) ([3]; 30 mg/kg, q.d): 93 ± 7 U/L; % Inh. @ 1 μM (SCD1 [2]): 95% and 77%
5 | CNC(=O)c1cccc(NC(=O)N2CCC(c3noc4ccc(F)cc34)CC2)c1 [Compound 5] | 711 nM and 726 nM | 413 nM | 74 | – | –
6 | CNC(=O)c1cccc(NC(=O)N2CCC(n3ccc4ccccc43)CC2)c1 [Compound 2, 4-(1H-indol-1-yl)-N-(3-(methylcarbamoyl)phenyl)piperidine-1-carboxamide] | 376 nM and 384 nM | 170 nM | 84 | – | –
7 | Cc1cnc(NC(=O)N2CCC(N3CCc4ccc(F)cc43)CC2)s1 [Compound 21, 4-(6-fluoroindolin-1-yl)-N-(5-methylthiazol-2-yl)piperidine-1-carboxamide] | – | 82 nM | 83 | 108 | –
8 | O=C(Nc1nc(CCO)cs1)N1CCC(N2CCc3ccc(F)cc32)CC1 [Compound 29, 4-(6-fluoroindolin-1-yl)-N-(4-(2-hydroxyethyl)thiazol-2-yl)piperidine-1-carboxamide] | – | 20 nM | 94 | 18 | –
9 | O=C(Nc1nc2c(s1)CC(O)CC2)N1CCC(c2noc3ccc(F)cc23)CC1 (stereo not drawn) [Compound 60, 4-(5-fluorobenzo[d]isoxazol-3-yl)-N-(6-hydroxy-4,5,6,7-tetrahydrobenzo[d]thiazol-2-yl)piperidine-1-carboxamide] | – | 39 nM | 98 | 1 | –
10 | CCOC(=O)Cc1csc(NC(=O)N2CCC(N3CCc4ccc(F)cc43)CC2)n1 [Compound 27, ethyl 2-(2-(4-(6-fluoroindolin-1-yl)piperidine-1-carboxamido)thiazol-4-yl)acetate] | – | 290 nM | 80 | > 1000 | –
11 | CCCc1nc2ccc(NC(=O)N3CCC(c4noc5ccc(F)cc45)CC3)cc2s1 [Compound 9, 4-(5-fluorobenzo[d]isoxazol-3-yl)-N-(2-propylbenzo[d]thiazol-6-yl)piperidine-1-carboxamide] | 640 nM | 444 nM | 79 | – | –
12 | Cc1csc(NC(=O)N2CCC(n3ccc4ccccc43)CC2)n1 [Compound 4, 4-(1H-indol-1-yl)-N-(4-methylthiazol-2-yl)-piperidine-1-carboxamide] | 209 nM and 325 nM | 573 nM and 502 nM | 70 | – | –
